Patent publication US4321372A, “Antiulcer thiazol-2-ylcarbamoyl-carboxylic acids, esters and amides” (Pfizer Inc., priority 1980, dated 1982)
Counter-ions that a name gives are not always drawn.

Legend:
gastric ulcers = settings: animals, including humans; cited from earlier work
antiallergic activity = settings: cited from earlier work
[1] = system: ethanol-induced rat ulcer; assay: Ethanol-induced rat ulcer assay (oral antiulcer activity); assay type: in vivo; settings: for % Inhibition (oral activity in the ethanol-induced rat ulcer assay) / inhibition at 5 mg/kg: 5 mg./kg. orally, 15 min before absolute ethanol (1.0 ml.), male fasted rats, 8/group, lesions scored 1 hour after ethanol, based on ulcer index vs controls; for inhibition at 5 mg/kg: Rattus norvegicus, po
Description: The antiulcer activity of the compounds of the present invention is evaluated by an ethanol-induced rat ulcer assay, a test reflecting clinical utility of these compounds in the treatment of peptic ulcers, particularly gastric ulcers.
The effectiveness of the products of this invention as antiulcer agents is determined in an ethanol-induced rat ulcer assay. In this test, overnight fasted male rats are orally administered either drug (5 mg./kg.) dissolved or suspended in water or dilute NaOH, or water (controls), fifteen minutes prior to an orally administered dose of absolute ethanol (1.0 ml.). One hour after the ethanol challenge the animals (8/group) are killed and the stomachs examined for the presence of lesions. After sacrifice the abdomen is opened and a locking hemostate placed at the pylorus. Six ml. of a 4% solution of formaldehyde is injected into the stomach with a gastric feeding tube and a second locking hemostate is used to seal the esophagus. The stomach is removed, opened along the greater curvature and examined for ulceration.
The scoring system used to quantitate the ethanol-induced lesions is given below.
1 Normal appearing stomach
2 Pinpoint sized lesions
3 Lesions, 2 or fewer; pin-
5 Lesions with hemorrhage
For each group of animals an ulcer index is calculated as follows:
Ulceration Index=(the sum of the scores of the group)×(the sum of the number of ulcers in the group)×(the fraction of the group having any incidence of ulceration).
The percent inhibition of ulcers is calculated as follows:
% Inhibition=100×[(ulcer index controls)-(ulcer index drug-treated)].div.(ulcer index controls).

Row | Molecule | % Inhibition (oral activity in the ethanol-induced rat ulcer assay) [1] | inhibition at 5 mg/kg [1] | also measured
1 | CC1(C)[C@@H](OC(=O)CCC(=O)O)CC[C@]2(C)[C@H]3C(=O)C=C4[C@@H]5C[C@@](C)(C(=O)O)CC[C@]5(C)CC[C@@]4(C)[C@]3(C)CC[C@@H]12 [carbenoxolone sodium, disodium salt of the hemisuccinate of glycyrrhetinic acid] | – | – | effect on gastric ulcers (gastric ulcers): prevent formation of and to accelerate healing of gastric ulcers
2 | CCOC(=O)C(=O)Nc1nccs1 [ethyl thiazol-2-ylcarbamoylcarboxylate] | inactive | 3% | antiallergic activity, parenteral (antiallergic activity; high parenteral dose): antiallergic activity; antiallergic activity, oral (antiallergic activity; oral, even at 200 mg./kg.): no significant oral activity; antiulcer activity (in words) ([1]; compared with compounds of the invention): lacking in the antiulcer activity
3 | CCOC(=O)C(=O)Nc1nc(C)c(C)s1 [Example 16, ethyl 4,5-dimethylthiazol-2-ylcarbamoylcarboxylate] | – | 62% | –
4 | ethyl 4-methylthiazol-2-ylcarbamoylcarboxylate [Example 14] | 59% | – | –
5 | CCOC(=O)C(=O)Nc1nc2c(s1)CCCC2 [Example 23, ethyl 4,5,6,7-tetrahydrobenzthiazol-2-ylcarbamoylcarboxylate] | – | 51% | –
6 | CCOC(=O)C(=O)Nc1nc(CC)c(CC)s1 [Example 18, ethyl 4,5-diethylthiazol-2-ylcarbamoylcarboxylate] | – | 81% | –
7 | ethyl 5-methylthiazol-2-ylcarbamoylcarboxylate [Example 15] | 48% | – | –
